# From patent US6608086B2, “Dihydropyridines and new uses thereof” (Synaptic Pharmaceutical Corporation, priority 1993, dated 2003)
# Where a name gives a salt, the structure may show the parent alone. Read-outs that look alike come from different tables or passages of the source.
# Experiments:
# [1] = biological target: T1, α1B Human Adrenergic Receptor (Homo sapiens, UniProt P35368); test: Radioligand binding, [3H]prazosin, cloned human α1B adrenergic receptor
# T1 construct: The entire coding region of α1B (1563 bp); expressed in transfected cells
# T1 sequence (P35368 1-520): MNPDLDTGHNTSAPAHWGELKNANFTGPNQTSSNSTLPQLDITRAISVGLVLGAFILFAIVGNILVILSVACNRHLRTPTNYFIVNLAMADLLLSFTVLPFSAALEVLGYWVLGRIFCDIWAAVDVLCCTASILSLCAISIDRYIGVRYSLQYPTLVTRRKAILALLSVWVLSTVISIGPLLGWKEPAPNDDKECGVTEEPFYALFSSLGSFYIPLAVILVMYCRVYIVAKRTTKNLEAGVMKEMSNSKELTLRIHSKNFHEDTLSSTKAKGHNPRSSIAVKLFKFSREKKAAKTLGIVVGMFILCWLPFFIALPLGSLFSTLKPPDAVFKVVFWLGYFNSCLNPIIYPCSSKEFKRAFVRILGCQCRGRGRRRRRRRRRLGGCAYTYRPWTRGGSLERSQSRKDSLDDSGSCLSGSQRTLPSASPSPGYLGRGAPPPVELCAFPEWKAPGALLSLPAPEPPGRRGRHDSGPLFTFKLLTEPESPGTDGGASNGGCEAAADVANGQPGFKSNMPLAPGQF
# How it was run: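 [3H]prazosin (0.5 nM) binding was run for 20 min at 37° C in pH 7.5 Tris/MgCl2/ascorbate buffer on membranes of LM(tk−) cells stably expressing the cloned receptor. Filtration through GF/B ended the reaction; 10 μM phentolamine gave nonspecific binding.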
# α2B receptor = biological target: T2, α2B receptor (Homo sapiens, UniProt P18089); test: Competition binding, [3H]rauwolscine, human α2B receptor
# T2 construct: host or cells: LM(tk-) cells, line L-NGC-α2B
# T2 sequence (P18089 1-450): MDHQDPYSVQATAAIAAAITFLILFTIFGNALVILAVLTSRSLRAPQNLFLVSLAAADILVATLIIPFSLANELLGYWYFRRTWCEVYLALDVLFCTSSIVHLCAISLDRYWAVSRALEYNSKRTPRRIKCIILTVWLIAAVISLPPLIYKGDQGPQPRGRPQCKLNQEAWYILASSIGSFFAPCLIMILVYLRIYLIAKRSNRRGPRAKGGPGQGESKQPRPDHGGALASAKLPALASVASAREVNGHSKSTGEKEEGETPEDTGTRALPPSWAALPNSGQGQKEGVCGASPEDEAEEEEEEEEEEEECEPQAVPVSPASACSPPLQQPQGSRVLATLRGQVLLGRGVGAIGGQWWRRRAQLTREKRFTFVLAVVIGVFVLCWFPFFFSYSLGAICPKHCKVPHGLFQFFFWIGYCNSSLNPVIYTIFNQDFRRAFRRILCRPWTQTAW
# How it was run: (§1)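 Filter-bound [3H]rauwolscine (0.5 nM) was measured after equilibrium competition with test antagonists on lysates of LM(tk−) cells stably transfected with each human α2 subtype. Buffer: 25 mM glycylglycine, pH 7.6 at room temperature; 10 μM phentolamine gave nonspecific binding.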
# L-type calcium channel = biological target: T3, L-type calcium channel (Rattus norvegicus, UniProt P22002); test: Competition binding of [3H]nitrendipine to membrane fragments of rat cardiac muscle
# T3 construct: membrane fragments of rat cardiac muscle; from tissue; host or cells: rat cardiac muscle membranes
# α2A receptor = biological target: T4, α2A receptor (Homo sapiens, UniProt P08913); test: Competition binding, [3H]rauwolscine, human α2A receptor
# T4 construct: host or cells: LM(tk-) cells, line L-α2A
# T4 sequence (P08913 1-465): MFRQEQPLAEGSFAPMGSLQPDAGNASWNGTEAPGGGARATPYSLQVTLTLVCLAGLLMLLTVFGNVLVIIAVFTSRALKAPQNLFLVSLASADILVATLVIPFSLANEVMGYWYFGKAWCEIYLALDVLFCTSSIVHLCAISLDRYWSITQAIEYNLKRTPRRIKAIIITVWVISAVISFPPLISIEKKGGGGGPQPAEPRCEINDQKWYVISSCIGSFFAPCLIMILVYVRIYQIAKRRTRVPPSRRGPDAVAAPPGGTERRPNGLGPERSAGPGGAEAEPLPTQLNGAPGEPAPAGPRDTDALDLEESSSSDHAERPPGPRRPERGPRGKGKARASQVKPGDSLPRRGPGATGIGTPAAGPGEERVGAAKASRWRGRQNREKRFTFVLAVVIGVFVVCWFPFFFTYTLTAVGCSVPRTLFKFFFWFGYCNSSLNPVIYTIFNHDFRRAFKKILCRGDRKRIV
# How it was run: as §1
# [2] = cloned human receptor in LM(tk-) cell membranes, SEM and n in lines below, read-out: pKi alpha-1 1b (converted)
# [3] = [3H]rauwolscine, LM(tk-) cell line L-NGC-α2B, SEM and n in lines below, read-out: pKi alpha-2 2b (converted)
# [4] = [3H]nitrendipine, rat cardiac muscle membranes, SEM and n in lines below, read-out: pKi Ca (converted)
# [5] = [3H]rauwolscine, LM(tk-) cell line L-α2A, SEM and n in lines below, read-out: pKi alpha-2 2a (converted)
# [6] = cloned human receptor, LM(tk-) cell membranes, mean, read-out: PKi alpha-1 1b (converted)
# [7] = cloned human receptor in LM(tk-) cell membranes, SEM and n in lines below
# [8] = [3H]rauwolscine, LM(tk-) cell line L-NGC-α2B, SEM and n in lines below
# [9] = [3H]nitrendipine, rat cardiac muscle membranes, SEM and n in lines below
# [10] = [3H]rauwolscine, LM(tk-) cell line L-α2A, SEM and n in lines below
# T3 sequence (P22002 whole entry, other chains not shown, the tested form may be a part): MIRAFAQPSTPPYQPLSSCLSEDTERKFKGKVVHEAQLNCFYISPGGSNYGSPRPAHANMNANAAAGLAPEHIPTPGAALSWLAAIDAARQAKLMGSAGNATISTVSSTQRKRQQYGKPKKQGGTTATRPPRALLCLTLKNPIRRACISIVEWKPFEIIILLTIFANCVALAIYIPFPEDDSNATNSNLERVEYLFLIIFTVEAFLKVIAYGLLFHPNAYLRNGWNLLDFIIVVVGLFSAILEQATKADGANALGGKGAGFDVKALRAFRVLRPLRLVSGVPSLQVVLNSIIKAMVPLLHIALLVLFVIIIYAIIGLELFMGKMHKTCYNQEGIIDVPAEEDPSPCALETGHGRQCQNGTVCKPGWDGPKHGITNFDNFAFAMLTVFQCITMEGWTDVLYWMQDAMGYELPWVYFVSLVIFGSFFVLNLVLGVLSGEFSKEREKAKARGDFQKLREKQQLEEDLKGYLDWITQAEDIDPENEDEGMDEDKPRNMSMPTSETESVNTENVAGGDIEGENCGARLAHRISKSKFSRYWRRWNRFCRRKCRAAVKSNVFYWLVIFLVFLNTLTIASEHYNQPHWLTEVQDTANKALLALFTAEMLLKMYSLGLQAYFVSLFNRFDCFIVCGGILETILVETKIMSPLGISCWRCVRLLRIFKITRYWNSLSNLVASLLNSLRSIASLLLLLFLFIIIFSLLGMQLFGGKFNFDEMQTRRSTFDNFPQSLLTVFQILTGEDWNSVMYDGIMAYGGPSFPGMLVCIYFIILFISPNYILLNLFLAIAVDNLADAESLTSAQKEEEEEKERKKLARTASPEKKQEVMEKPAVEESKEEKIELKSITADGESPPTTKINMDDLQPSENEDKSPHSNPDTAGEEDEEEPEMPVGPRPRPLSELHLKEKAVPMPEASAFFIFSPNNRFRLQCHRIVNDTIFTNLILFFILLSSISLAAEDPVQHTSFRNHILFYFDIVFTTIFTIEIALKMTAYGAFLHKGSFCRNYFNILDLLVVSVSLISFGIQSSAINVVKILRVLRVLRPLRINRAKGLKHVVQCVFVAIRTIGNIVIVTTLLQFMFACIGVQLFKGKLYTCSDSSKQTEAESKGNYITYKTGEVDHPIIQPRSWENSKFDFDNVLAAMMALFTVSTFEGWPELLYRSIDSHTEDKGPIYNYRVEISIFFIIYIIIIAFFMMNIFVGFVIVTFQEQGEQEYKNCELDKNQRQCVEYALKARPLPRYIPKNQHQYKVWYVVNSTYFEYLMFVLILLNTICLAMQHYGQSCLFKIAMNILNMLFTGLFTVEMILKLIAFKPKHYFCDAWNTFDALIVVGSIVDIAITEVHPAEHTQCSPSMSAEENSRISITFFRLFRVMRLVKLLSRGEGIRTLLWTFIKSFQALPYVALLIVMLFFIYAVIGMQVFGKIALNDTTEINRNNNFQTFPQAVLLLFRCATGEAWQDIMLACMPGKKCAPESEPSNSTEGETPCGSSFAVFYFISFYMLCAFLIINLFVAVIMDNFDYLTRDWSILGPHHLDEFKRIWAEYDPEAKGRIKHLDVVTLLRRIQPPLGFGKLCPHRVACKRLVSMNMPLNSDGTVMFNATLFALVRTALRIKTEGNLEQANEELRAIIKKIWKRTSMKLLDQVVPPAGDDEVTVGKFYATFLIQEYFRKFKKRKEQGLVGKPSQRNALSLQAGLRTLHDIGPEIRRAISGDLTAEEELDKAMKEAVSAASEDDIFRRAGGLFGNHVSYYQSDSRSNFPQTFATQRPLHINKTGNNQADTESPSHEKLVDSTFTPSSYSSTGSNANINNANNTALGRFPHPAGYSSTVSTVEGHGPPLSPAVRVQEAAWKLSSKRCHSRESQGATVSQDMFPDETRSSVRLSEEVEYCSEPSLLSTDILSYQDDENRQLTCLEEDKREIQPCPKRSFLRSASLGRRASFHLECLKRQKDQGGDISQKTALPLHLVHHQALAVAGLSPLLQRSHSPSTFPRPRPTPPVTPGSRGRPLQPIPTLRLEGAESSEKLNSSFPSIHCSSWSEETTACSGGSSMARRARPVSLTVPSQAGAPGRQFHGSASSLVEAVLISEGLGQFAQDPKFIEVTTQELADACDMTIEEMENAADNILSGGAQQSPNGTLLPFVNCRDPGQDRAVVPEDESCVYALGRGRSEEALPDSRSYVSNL
# T3 sequence (P54290 25-944 partner limits assumed, other chains not shown): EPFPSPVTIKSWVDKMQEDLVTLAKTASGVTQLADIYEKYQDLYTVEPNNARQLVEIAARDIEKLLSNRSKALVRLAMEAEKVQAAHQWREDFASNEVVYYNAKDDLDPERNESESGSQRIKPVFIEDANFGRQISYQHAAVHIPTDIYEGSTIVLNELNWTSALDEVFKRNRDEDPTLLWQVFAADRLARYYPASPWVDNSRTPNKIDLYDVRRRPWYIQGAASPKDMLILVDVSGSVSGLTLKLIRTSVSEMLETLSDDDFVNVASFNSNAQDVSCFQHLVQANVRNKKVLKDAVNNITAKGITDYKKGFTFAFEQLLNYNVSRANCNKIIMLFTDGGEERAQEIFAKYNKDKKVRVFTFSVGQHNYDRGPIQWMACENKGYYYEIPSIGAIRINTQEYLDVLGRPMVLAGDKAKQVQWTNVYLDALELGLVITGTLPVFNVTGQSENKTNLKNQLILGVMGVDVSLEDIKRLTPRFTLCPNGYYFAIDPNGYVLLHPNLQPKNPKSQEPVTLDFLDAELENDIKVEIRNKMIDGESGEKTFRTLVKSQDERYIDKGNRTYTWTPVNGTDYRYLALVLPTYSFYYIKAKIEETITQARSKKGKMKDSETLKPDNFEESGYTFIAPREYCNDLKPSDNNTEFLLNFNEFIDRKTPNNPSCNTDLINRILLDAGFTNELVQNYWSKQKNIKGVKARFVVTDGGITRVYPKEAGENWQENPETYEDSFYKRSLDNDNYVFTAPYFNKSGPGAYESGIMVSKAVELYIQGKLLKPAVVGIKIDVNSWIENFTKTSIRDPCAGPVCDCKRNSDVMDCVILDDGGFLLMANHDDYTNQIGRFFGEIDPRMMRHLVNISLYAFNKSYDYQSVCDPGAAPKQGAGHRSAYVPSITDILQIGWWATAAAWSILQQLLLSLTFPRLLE
# T3 sequence (P54290 945-1091 partner limits assumed, other chains not shown): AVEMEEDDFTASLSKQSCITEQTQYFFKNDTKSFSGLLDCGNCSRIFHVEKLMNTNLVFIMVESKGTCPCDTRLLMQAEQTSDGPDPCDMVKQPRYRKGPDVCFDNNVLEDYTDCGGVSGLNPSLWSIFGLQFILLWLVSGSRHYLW
structure (smiles),measurement,setting,value
CC1=C(C(N)=O)C(c2cccc([N+](=O)[O-])c2)C(C(=O)NCCCN2CCC(c3ccccc3)CC2)=C(C)N1 (stereo not drawn) [Example 62],Ki,[1]; [2],316 nM
same,Ki,α2B receptor; [3],57.5 nM
same,Ki,L-type calcium channel; [4],19.5 µM
same,Ki,α2A receptor; [5],24.5 nM
same,melting point,,92 to 96 °C
"CCNC(=O)C1=C(CC)NC(COCCN)=C(C(=O)NCCCN2CCC(C(=O)OC)(c3ccccc3)CC2)C1c1ccc([N+](=O)[O-])cc1 (stereo not drawn) [Example 233, 2-((2-Aminoethyl)oxy)methyl-6-ethyl-5-N-ethylcarboxamido-1,4-dihydro-3-(N-(3-(4-methoxycarbonyl-4-phenylpiperidin-1-yl)propyl))carboxamido-4-(4-nitro)phenylpyridine]",Ki,[1]; [6],1620 nM
same,Ki,α2B receptor; PKi alpha-2 2b,8710 nM
same,Ki,L-type calcium channel; PKi Ca,0.257 µM
same,Ki,α2A receptor,4790 nM
same,melting point,,112 °C (dec.)
"CC1=C(C(=O)NCCCN2CCC(c3ccccc3)CC2)C(c2ccc([N+](=O)[O-])cc2)c2c([nH]c(=O)[nH]c2=O)N1 (stereo not drawn) [Example 63, 1,4-Dihydro-6-methyl-4-(4-nitrophenyl)-5-{N-[3-(4-phenylpiperidin-1-yl)propyl]}carboxamido-[2,3, d]uracilylpyridine]",Ki,[1]; [2],18.6 nM
same,Ki,α2B receptor; [3],132 nM
same,Ki,L-type calcium channel; [4],66.1 µM
same,Ki,α2A receptor; [5],955 nM
same,melting point,,202 to 205 °C
"CCC1=C(C(N)=O)C(c2ccc([N+](=O)[O-])cc2)C(C(=O)NCCCN2CCN(c3ccccc3)CC2)=C(CC)N1 (stereo not drawn) [Example 104, 5-Carboxamido-2,6-diethyl-1,4-dihydro-4-(4-nitrophenyl)-3-{N-[3-(4-phenylpiperazin-1-yl)propyl]}carboxamido-pyridine hydrochloride hydrate]",Ki,"[1]; cloned human α1B receptor, LM(tk−) cell membranes, read-out: pKi alpha-1 1b (converted)",34.7 nM
same,Ki,"α2B receptor; [3H]rauwolscine, human α2B receptor, LM(tk−) cells, read-out: pKi alpha-2 2b (converted)",56.2 nM
same,Ki,"L-type calcium channel; [3H]nitrendipine, rat cardiac muscle membrane fragments, L-type calcium channel, read-out: pKi Ca (converted)",1000 µM
same,Ki,"α2A receptor; [3H]rauwolscine, human α2A receptor, LM(tk−) cells, read-out: pKi alpha-2 2a (converted)",5.25 nM
"COC(=O)C1=C(C)NC(C)=C(C(=O)OCCCN2CCC(c3ccccc3)CC2)C1c1ccc([N+](=O)[O-])cc1 (stereo not drawn) [Example 48, 1,4-Dihydro-5-methazycarbonyl-2,6-dimethyl-4-(4-nitrophenyl)-3-[3-(4-phenylpiperidin-1-yl)propoxy]}carbonylpyridine hydrochloride hydrate]",Ki,[1]; [2],2.63 nM
same,Ki,α2B receptor; [3],813 nM
same,Ki,L-type calcium channel; [4],0.479 µM
same,Ki,α2A receptor; [5],17.4 nM
"COC(=O)C1=C(C)NC(c2ccccc2)=C(C(=O)NCCCN2CCC(c3ccccc3)CC2)C1c1ccc([N+](=O)[O-])cc1.Cl (stereo not drawn) [Example 79, 1,4-Dihydro-5-methoxycarbonyl-6-methyl-4-(4-nitro)phenyl-2-phenyl-3-(N-(3-(4-phenylpiperidin-1-yl)propyl)) carboxamidopyridine hydrochloride]",pKi alpha-1 1b,[1]; [7],7.33
same,pKi alpha-2 2b,α2B receptor; [8],7.28
same,pKi Ca,L-type calcium channel; [9],6.17
same,pKi alpha-2 2a,α2A receptor; [10],6.84
"COC(=O)C1=C(C)NC(C)=C(C(=O)NCCCCN2CCC(c3ccccc3)(c3ccccc3)CC2)C1c1ccc([N+](=O)[O-])cc1.Cl.O (stereo not drawn) [Example 53, 1,4-Dihydro-3-methoxycarbonyl-2,6-dimethyl-4-(4-nitrophenyl)-5-{N-[4-(4,4-diphenylpiperidin-1-yl)butyl]}carboxamidopyridine hydrochloride hydrate]",pKi alpha-1 1b,[1]; [7],6.87
same,pKi alpha-2 2b,α2B receptor; [8],6.34
same,pKi Ca,L-type calcium channel; [9],5.54
same,pKi alpha-2 2a,α2A receptor; [10],6.18
"COC(=O)C1(c2ccccc2)CCN(CCCNC(=O)C2=C(COCCN=[N+]=[N-])NC(C)=C(C(N)=O)C2c2ccc([N+](=O)[O-])cc2)CC1 (stereo not drawn) [Example 183, 2-[(2-Azidoethoxy)methyl]-5-carboxamido-1,4-dihydro-3-{N-[3-(4-methoxycarbonyl-4-phenylpiperidin-1-yl)propyl]}carboxamido-6-methyl-4-(4-nitrophenyl)pyridine]",Ki,[1]; [6],229 nM
same,Ki,"α2B receptor; [3H]rauwolscine, human receptor, LM(tk-) cell lysates, mean, read-out: PKi alpha-2 2b (converted)",724 nM
same,Ki,"L-type calcium channel; [3H]nitrendipine, rat cardiac muscle membranes, mean, read-out: PKi Ca (converted)",74.1 µM
same,Ki,"α2A receptor; [3H]rauwolscine, human receptor, LM(tk-) cell lysates, mean, read-out: PKi alpha-2 2a (converted)",1050 nM
"COC(=O)C1=C(C)NC(C)=C(C(=O)NCCCN2CCC(c3ccccc3)CC2)C1c1ccc([N+](=O)[O-])cc1 (single isomer, unassigned; (-)) [(−)-45, 1,4-Dihydro-3-methoxycarbonyl-2,6-dimethyl-4-(4-nitrophenyl)-5-{N-[3-(4-phenylpiperidin-1-yl)propyl]}carboxamidopyridine hydrochloride hemihydrate]",Ki,[1]; [2],9.12 nM
same,Ki,α2B receptor; [3],229 nM
same,Ki,L-type calcium channel; [4],4.37 µM
same,Ki,α2A receptor; [5],339 nM
